Test results: patent US9226934B2, “Anti-cancer drug” (THE UNIVERSITY OF TOKYO, priority 2008, dated 2016)

Assays:
B16, melanoma cells = experiment: Subcutaneous tumor model of B16 melanoma cells in C57Bl/6 mice, tumor growth; type: in vivo, mouse; settings: agent alone i.p. on day 10, 13, 16; compared with non-treated group; afterwards growth as in non-treated group
Method: The MC 38, mouse colon carcinoma cells or B16, melanoma cells were subcutaneously injected to the back of 6-week-old C57BI/6 mice (1×10^5 cells/mouse). After the tumor diameter (longer diameter) reached 5 mm (25 to 30 mm^2) (day 10), an anti-cancer agent and/or an anti-MFG-E8 antibody were/was intraperitoneally administered to each mouse on day 10, day 13, and day 16 according to any of the following protocols. The experiments according to each protocol were performed twice. The employed anti-MFG-E8 antibody was a blocking antibody commercially available from MBL. In protocols 1 to 4, MC38 was used, and B16 melanoma was used in protocol 5. […]

[1] = tested on: MC 38, mouse colon carcinoma cells; experiment: Subcutaneous tumor model of MC38 colon carcinoma cells in C57Bl/6 mice, tumor growth; type: in vivo; settings: agent alone i.p. on day 10, 13, 16; compared with non-treated group; afterwards growth as in non-treated group
Method: The MC 38, mouse colon carcinoma cells or B16, melanoma cells were subcutaneously injected to the back of 6-week-old C57BI/6 mice (1×10^5 cells/mouse). After the tumor diameter (longer diameter) reached 5 mm (25 to 30 mm^2) (day 10), an anti-cancer agent and/or an anti-MFG-E8 antibody were/was intraperitoneally administered to each mouse on day 10, day 13, and day 16 according to any of the following protocols. The experiments according to each protocol were performed twice. The employed anti-MFG-E8 antibody was a blocking antibody commercially available from MBL. In protocols 1 to 4, MC38 was used, and B16 melanoma was used in protocol 5.
• Gemcitabine (GEM): 4 mg/kg • Gemcitabine (GEM): 1 mg/kg • Anti-MFG-E8 antibody: 1 mg/kg • Gemcitabine (GEM): 4 mg/kg+anti-MFG-E8 antibody: 1 mg/kg • Gemcitabine (GEM): 1 mg/kg+anti-MFG-E8 antibody: 1 mg/kg Protocol 2: • CPT-11: 1 mg/kg • 5-FU: 0.1 M • Anti-MFG-E8 antibody: 1 mg/kg • CPT-11: 1 mg/kg+anti-MFG-E8 antibody: 1 mg/kg • 5-FU: 0.1 M+anti-MFG-E8 antibody: 1 mg/kg Protocol 3: • Epidermal growth factor receptor tyrosine kinase 1 (EGFR-TK1): […] • Anti-vascular endothelial growth factor receptor-2 monoclonal antibody (α-VEGFR-2Ab): 40 mg/kg • Anti-MFG-E8 antibody: 1 mg/kg Protocol 4: • Irradiation (XRT): 3 Gy/day×5 • Anti-MFG-E8 antibody: 1 mg/kg Protocol 5: • Doxorubicin (Dox): 5 mg/kg • Etoposide (Etop): 2 mg/kg • Anti-MFG-E8 antibody: 1 mg/kg (Results)

dendritic cells = experiment: OVA-specific T cell activity in mixed culture with treated dendritic cells, intracellular IFN-γ and IL-10; type: cell-based, mouse; settings: dendritic cells treated with MFG-E8 recombinant protein 100 μg/mL or anti-MFG-E8 antibody 20 μg/mL; 72 h; compared to control
Excerpt: The mechanisms of activation of dendritic cells and T cells through employment of the anti-MFG-E8 antibody and the anti-cancer agent, such activation having been observed in vivo, were further investigated in vitro by using a mixed culture system.
Specifically, ovalbumin (OVA) was employed as a model antigen. In a specific procedure, bone marrow cells were collected from DO11.10 (MHC class II-restricting OVA antigen transgenic mice), and differentiation to dendritic cells was induced with granulocyte-monocyte colony-stimulating factor (GM-CSF). Seven days after the initiation of the differentiation induction, the cells were treated with MFG-E8 recombinant protein (100 μg/mL) or anti-MFG-E8 antibody (20 μg/mL). Thereafter, on day 8, the thus-treated cells were pulsed with MHC class II OVA-restricting OVA peptide ([…]) or a negative control peptide (HSA) for six hours. The resultant cells were admixed with naive CD4+ positive T cells derived from syngeneic (Balb/c) mice in such an amount that the ratio of dendritic cells to CD4+ T cells was adjusted to 1:10, and the cell mixture was cultured in the presence of an anti-CD3 antibody (0.1 μg/mL). Seventy-two hours after, the activity of T cells was determined through flow cytometry, in terms of intracellular expression of IFN-γ and IL-10.

Dendritic cells (BMDCs) = experiment: Cytokine concentrations of BMDC culture supernatant, ELISA; type: cell-based, mouse; settings: recombinant MFG-E8 100 ng/mL or anti-MFG-E8 monoclonal antibody 20 μg/mL overnight
Method: Dendritic cells (BMDCs) were prepared through culturing myeloid progenitor cells for seven days in a GM-CSF containing medium, and treated overnight with recombinant MFG-E8 (100 ng/mL, product of R&D Systems), an anti-MFG-E8 monoclonal antibody (20 μg/mL, MBL), or a polyclonal MFG-E8 anti-serum (20 μg/mL). The IL-12, IL-23, TNF-α, and IL-10 concentrations of the culture supernatant were determined with ELISA. On day 7, BMDCs were co-cultured with PKH26 (Sigma-Aldrich)-labeled EG.7-OVA cells using a 12-well plate (ratio: 1:10), and phagocytosis was determined with flow cytometry. A similar experiment was performed using tumor cells treated for 30 minutes with an anti-MFG-E8 monoclonal antibody ([…]) before the co-culture. The effect of αvβ3 integrin-blocking antibody (RMV-7, product of Millipore) or Fc-receptor-blocking antibody (product of BD Bioscience) was also evaluated on the intake of tumor cells. Cross-presentation was tested using the following procedure. Specifically, naive CD4^+ T cells were isolated from the spleen of C57BL/6-Tg (ACTB-OVA) 916Jen/J mice using magnetic cell sorting (product of Miltenyi Biotech). The thus-isolated cells were added to the dendritic cells to which tumor cells had been loaded for 24 hours. Expression of IFN-γ within the cells was measured with flow cytometry.

Row | Molecule | tumor growth, anti-cancer agent alone (B16, melanoma cells) | tumor growth, anti-cancer agent alone [1] | other results
1 | COc1cccc2c1C(=O)c1c(O)c3c(c(O)c1C2=O)C[C@@](O)(C(=O)CO)C[C@@H]3O[C@H]1C[C@H](N)[C@H](O)[C@H](C)O1 [doxorubicin] | tumor growth was significantly suppressed for 5 to 10 days after administration |  | 
2 | Nc1ccn([C@@H]2O[C@H](CO)[C@@H](O)C2(F)F)c(=O)n1 [GEM, gemcitabine] |  | tumor growth was significantly suppressed for 5 to 10 days after administration | 
3 | CCc1c2c(nc3ccc(OC(=O)N4CCC(N5CCCCC5)CC4)cc13)-c1cc3c(c(=O)n1C2)COC(=O)[C@]3(O)CC [CPT-11] |  | tumor growth was significantly suppressed for 5 to 10 days after administration | 
4 | O=c1[nH]cc(F)c(=O)[nH]1 [5FU, 5-FU] |  | tumor growth was significantly suppressed for 5 to 10 days after administration | 
5 | COc1cc([C@@H]2c3cc4c(cc3[C@@H](O[C@@H]3O[C@@H]5CO[C@@H](C)O[C@H]5[C@H](O)[C@H]3O)[C@H]3COC(=O)[C@H]23)OCO4)cc(OC)c1O [etoposide] | tumor growth was significantly suppressed for 5 to 10 days after administration |  | 
6 | MFG-E8: MFG-E8 recombinant protein (product of R&D Systems in Example 11) (protein, UniProt Q08431 24-387, looked up) Lactadherin: LDICSKNPCHNGGLCEEISQEVRGDVFPSYTCTCLKGYAGNHCETKCVEPLGLENGNIANSQIAASSVRVTFLGLQHWVPELARLNRAGMVNAWTPSSNDDNPWIQVNLLRRMWVTGVVTQGASRLASHEYLKAFKVAYSLNGHEFDFIHDVNKKHKEFVGNWNKNAVHVNLFETPVEAQYVRLYPTSCHTACTLRFELLGCELNGCANPLGLKNNSIPDKQITASSSYKTWGLHLFSWNPSYARLDKQGNFNAWVAGSYGNDQWLQVDLGSSKEVTGIITQGARNFGSVQFVASYKVAYSNDSANWTEYQDPRTGSSKIFPGNWDNHSHKKNLFETPILARYVRILPVAWHNRIALRLELLGC |  |  | IL-10 production (dendritic cells): potentiation; OVA-specific IFN-γ production (dendritic cells): suppression; IL-10 production by dendritic cells (Dendritic cells (BMDCs)): enhanced secretion of IL-10
